Key:
[1] = test system: primary lung epithelium cells; assay: Cytotoxicity (Alamar blue); format: cell-based, human; conditions: ~16 hours (overnight), reduced serum conditions
Procedure: FIGS. 11A-11B are graphs showing cytotoxicity against primary lung epithelium cells in serum-free condition. Cells were seeded in complete growth medium (Minimal essential medium supplemented with 10% fetal bovine serum) at near-confluence into a 96-well plate and allowed to settle for 24-hours. Media was then replaced to OptiMEM I reduced serum medium containing peptide or vehicle alone (DBPS) and cells were incubated overnight (16 hours). A resazurin based dye (Alamar blue) was added directly to media and conversion of resazurin to resorufin was evaluated following two hours. % Survival represents the proportion of viable cells in peptide treated cells relative to cells treated with vehicle alone. […] Each peptide was tested in triplicate.
FIG. 12 is a graph showing comparison of toxicities against Lung Primary Epithelial cells and Lung Cancerous Epithelial Cells, derived from H358 cell-line. […] Each peptide was tested in triplicate.
Cytotoxicity. Cells were seeded in complete growth medium (Minimal Essential Medium, MEMα, supplemented with 10% Fetal Bovine Serum) into a culture-treated 96-well plate at a density of 25000 cells per well. After 24 hours, culture media was aspirated and replaced with media containing the selected peptide. No-serum experiments were conducted in Opti-MEM I reduced serum media (ThermoFisher, 31985062) and 10% serum experiments were performed in complete growth medium. In all cases, DBPS was used as a vehicle only control and buffer to serially dilute the peptides. After exposure to the peptides or vehicle-alone for the defined period, Alamar blue dye (resazurin) was added directly to the media and allowed to incubate for two hours. Following incubation, A570/A600 measurements were made to calculate reduction of resazurin dye to resorufin. A ratio of reduction in treated versus untreated cells was calculated in order to determine overall cell viability. The human cells were always maintained in a 37° C. incubator under 5% CO2.

[2] = Endotoxin binding: competitive displacement of BODIPY TR-Cadaverine from LPS; design: species or system Escherichia coli; conditions: 5 μM peptide, 10 μM BC, 10 μg/mL LPS, low ionic-strength 10 mM Na-PO4
Procedure: (§1) FIGS. 2A-2B are graphs showing endotoxin binding. The figures depict the competitive displacement of BC from LPS/LTA by the peptides. 5 μM of each peptide was incubated with 10 μM BC and 10 μg/mL LPS from E. coli (0111:B4) or LTA from S. aureus. Fluorescence intensity was measured at excitation=580 nm and emission=620 nm. 10 μM BC without endotoxin was used as 100% displacement while 10 μM BC with 10 μg/mL LPS/LTA without any peptide as 0% displacement and the % displacement of BC by each peptide was calculated accordingly. […] had been used as a positive control. The horizontal dotted line coincides with the % displacement of BC by ATRA1 on the y-axis.
(§2) FIGS. 6A-6B are graphs showing endotoxin (LPS (FIG. 6A) and LTA (FIG. 6B)) binding. Competitive displacement of BC from LPS/LTA. In each case, 5 μM peptide was incubated with 10 μM BC and 10 μg/mL LPS from E. coli (0111:B4) or LTA from S. aureus. Fluorescence intensity was measured using excitation=580 nm and emission=620 nm. As a positive control 10 μM BC without endotoxin was used as a reference for 100% displacement while 10 μM BC with 10 μg/mL LPS/LTA without any peptide as a negative control and a reference for 0% displacement. These controls were used to calculate % BC displacement for each peptide.
(§3) Endotoxin Binding. The binding of endotoxin (LPS/LTA) was evaluated using a fluorogenic conjugateBODIPY TR-Cadaverine (BC). BC binds endotoxin loses its fluorescence. The peptide competitively displaces BC from endotoxin and the fluorescence is reestablished. Competitive inhibition of endotoxin-BC binding was utilized due to presence of peptides already in complexion with endotoxin. 25 μL of 20 μM of peptides in 10 mM Na—PO4 buffer were incubated with 25 μL of LPS (40 μg/mL) or LTA (40 μg/mL) for 15 min and then added with 50 μL of BC (20 uM). Peptides bind to LPS or LTA and competitively prevents BC bind to the endotoxin. BC loses its fluorescence on binding to endotoxin. The fluorescence intensity of the unbound BC was measured at excitation=580 nm and emission=620 nm.
(§4) BC contains two functional moieties: BODIPY (boron-dipyrromethene) and cadaverine connected via a carboxamide. BODIPY is the fluorophore of BC and fluoresces in the free state in solution but loses fluorescence when bound to LPS/LTA. The competitive displacement of BC from LPS/LTA by AMPs and thus regeneration of the fluorescence has frequently been used to estimate the binding strength of AMPs with LPS/LTA. In the present studies, 5 μM of each peptide was used to displace BC from LPS/LTA. […] Such observation contradicts the initial assumption that substitution of Lys with arginine would result in increased efficiency of LPS binding. However, with sequential substitutions of Lys with arginine, starting with ATRA1-AR, peptide variants show increased LPS binding with each additional arginine substitution. In terms of LPS binding: ATRA1-AR<ATRA1-AR2<ATRA1-AR3. In ATRA1-R3, the lysine residues at 9th, 5th and 1st positions of ATRA1 were substituted with arginine. In ATRA1-R6 all of the lysine residues were replaced with arginine.

[3] = Endotoxin binding: competitive displacement of BODIPY TR-Cadaverine from LTA; design: species or system Staphylococcus aureus; conditions: 5 μM peptide, 10 μM BC, 10 μg/mL LTA, 10 mM Na-PO4
Procedure: as §1, §2, §3, §4

[4] = test system: E. coli ATCC 25922; assay: Antimicrobial efficacy (resazurin virtual colony count); format: cell-based, Escherichia coli; conditions: PBS (high / physiologically relevant ionic strength), pH 7.4
Procedure: Antimicrobial Studies. The phosphate buffers used for antimicrobial assays were supplemented with non-nitrogenous energy source, 0.1% (w/v) glucose. To conduct antimicrobial assays, bacterial strains were first suspended in respective buffers. E. coli (ATCC 25922) and B. cereus (ATCC 11778) were grown in MHB II up to OD600 nm˜1 and stored as frozen stock in 20% glycerol at −80° C. Occasionally they were thawed and enumerated by serial dilution and spreading on MHB II agar plates. The concentrations of the frozen stocks of E. coli and B. cereus strains were 1.0-1.1*10^8 CFU/mL with OD600 nm˜0.8. In case of other bacterial strains, they were grown on the days of experiment up to OD600 nm˜1-1.5 and then adjusted to OD600 nm˜0.8. The growth media of the drug-resistant bacterial strains were supplemented with few of the respective antibiotics against which they are resistant. 200 μL of the 0.8 OD600 nm culture were added to 10 mL of the respective buffer to obtain a suspension which was used to incubate with equal volumes of peptide solution in the same buffer.
Antimicrobial assays in different phosphate buffers and serum were conducted by adapting, with necessary modifications a fast high-throughput method based on Virtual Colony Count technique and later modified by incorporating the use of resazurin. At first serial dilution of a microbial strain in respective buffer was poured in the wells of 96 well polypropylene microplate and was then added with same volume of 2× MHB II supplemented with 80 μg/mL resazurin and incubated at 35° C. in a Gemini EM Microplate Reader (Molecular Devices) overnight with intermittent shaking. As the microbe grows it reduces non-fluorescent resazurin to fluorescent resorufin and the fluorescent intensity of each well were measured (excitation=570 nm, emission=590 nm) each 5 min for 15 hours. The time (t, min) to reach a certain fluorescence (RFU=20000 with respect to the starting fluorescence) was correlated with the initial bacterial concentration (in CFU/mL) in the particular well to obtain a calibration plot of the form: Log([Bacteria],CFU/mL)=b+m*t Equation 4: […]
To obtain antimicrobial efficacy of the peptides, 50 μL of serially diluted peptide in a buffer was incubated with 50 μL microbial suspension in the same buffer for 3 hours in black polypropylene 96 well plate. After incubation the wells were added with 100 μL of 2× MHB II supplemented with 80 μg/mL resazurin and then incubated with continuous fluorescence reading for overnight time period as described earlier. The surviving microbial population (CFU/mL) in each well were calculated by first finding the time to reach a fluorescence of RFU=20000 and the correlation (4) for the specific microbial strain and buffer. % Survival represents the proportion of viable cells in peptide treated cells relative to cells treated with the respective buffer alone. Equation 5: […]
Finally, the antimicrobial effectiveness of each peptide against the particular microbial strain in the specific buffer was determined by plotting % microbial survival as a function of the log of the concentration of the peptide and fitting the resulting data to a variable-slope sigmoidal regression model (equation 6). In this equation, log(EC50) represents the log of the concentration of the peptide required to kill half of the microbial population, where Smin and Smax correspond to the minimal and maximal microbial survival values (respectively), and H, Hill slope, is the parameter defining the steepness of the transition slopes of sigmoidal survival curves. % Microbial survival=Smin+(Smax−Smin)/(1+10^log(EC^50^)-log[peptide]*H) Equation 6: […]
The antimicrobial efficacies of the peptides were first tested against the model Gram-negative bacteria, E. coli ATCC 25922, in different phosphate buffers having varied ionic strengths and compositions. The phosphate buffers that were used included 10 mM sodium phosphate (calculated ionic strength˜25 mM), PBS and DPBS. […]

Compound | cytotoxicity, in words [1] | LPS binding (BC displacement), in words [2] | LTA binding (BC displacement), in words [3] | antimicrobial efficacy, in words [4]
CC[C@H](C)[C@H](NC(=O)CN)C(=O)NCC(=O)N[C@@H](C)C(=O)N[C@H](C(=O)N[C@@H](CC(C)C)C(=O)N[C@@H](CCCCN)C(=O)N[C@H](C(=O)N[C@@H](CC(C)C)C(=O)N[C@H](C(=O)N[C@H](C(=O)NCC(=O)N[C@@H](CC(C)C)C(=O)N1CCC[C@H]1C(=O)N[C@@H](C)C(=O)N[C@@H](CC(C)C)C(=O)N[C@H](C(=O)N[C@@H](CO)C(=O)N[C@@H](Cc1c[nH]c2ccccc12)C(=O)N[C@H](C(=O)N[C@@H](CCCCN)C(=O)N[C@@H](CCCNC(=N)N)C(=O)N[C@@H](CCCCN)C(=O)N[C@@H](CCCNC(=N)N)C(=O)N[C@@H](CCC(N)=O)C(=O)N[C@@H](CCC(N)=O)C(N)=O)[C@@H](C)CC)[C@@H](C)CC)[C@@H](C)O)[C@@H](C)O)C(C)C)C(C)C [melittin] | killed the cells at the highest degree | – | – | –
KKAKKFFKKLK (SEQ ID NO: 5) [ATRA1-AK] | – | highest LPS binding among all the peptides | highest LTA binding | lost activity in PBS

Reference: patent US11447533B2, “Antimicrobial and anticancer peptides and conjugates and compositions, methods, articles and kits relating thereto” (George Mason Research Foundation, Inc., priority 2018, dated 2022)
